According to patent US10759799B2, “Indazole containing macrocycles and therapeutic uses thereof” (Samumed, LLC, priority 2018, dated 2020):

How the values were obtained:
[1] = test system: Wnt activity (Sp5-Luc reporter, SW480 colon carcinoma cells); assay: Sp5-Luc reporter gene screening assay for Wnt activity in SW480 cells; format: cell-based; details: Homo sapiens; for inhibition at 10 µM: SW480, read-out: percent inhibition at 10 μM; for EC50: Sp5-Luc reporter, SW480 cells, 36 to 48 hours
Text: The screening assay for Wnt activity is described as follows. Reporter cell lines can be generated by stably transducing cancer cell lines (e.g., colon cancer) or primary cells (e.g., IEC-6 intestinal cells) with a lentiviral construct that includes a Wnt-responsive promoter driving expression of the firefly luciferase gene.
SW480 colon carcinoma cells were transduced with a lentiviral vector expressing luciferase with a human Sp5 promoter consisting of a sequence of eight TCF/LEF binding sites. SW480 cells stably expressing the Sp5-Luc reporter gene and a hygromycin resistance gene were selected by treatment with 150 μg/mL of hygromycin for 7 days. These stably transduced SW480 cells were expanded in cell culture and used for all further screening activities. […] For Sp5-Luc reporter gene assays, the cells were plated at 4,000 cells/well in 384-well plates with a DMEM medium containing 1% fetal bovine serum, and 1% Penicillin-Streptomycin and incubated for 36 to 48 hours at 37° C. and 5% CO2. Following incubation, 15 μl of BriteLite Plus luminescence reagent (Perkin Elmer) was added to each well of the 384-well assay plates. The plates were placed on an orbital shaker for 2 min and then luminescence was quantified using the Envision (Perkin Elmer) plate reader. Readings were normalized to DMSO only treated cells, and normalized activities were utilized for EC50 calculations using the dose-response log (inhibitor) vs. response-variable slope (four parameters) nonlinear regression feature available in GraphPad Prism 5.0 (or Dotmatics).

[2] = molecular target: recombinant DYRK1A kinase (Homo sapiens (Human), UniProt Q13627); assay: DYRK1A kinase assay (Ser/Thr 18 peptide Z-lyte, FRET); format: biochemical; details: 30 μM ATP, one hour at room temperature, read-out: EC50 (μM) (IC50 per method)
Text: Representative compounds were screened using the assay procedure for DYRK1A kinase activity as described below.
The DYRK1A kinase assay was run using the Ser/Thr 18 peptide Z-lyte assay kit according to manufacturer's instructions (Life Technologies—a Division of Thermo-Fisher). This is a non-radioactive assay using fluorescence resonance energy transfer (FRET) between coumarin and fluorescein to detect kinase activity which is represented as a ratio of coumarin emission/fluorescein emission.
Briefly, recombinant DYRK1A kinase, ATP and Ser/Thr peptide 18 were prepared in 1× Kinase buffer to final concentrations of 0.19 μg/mL, 30 μM, and 4 μM respectively. The mixture was allowed to incubate with the representative compounds for one hour at room temperature. All reactions were performed in duplicate. Unphosphorylated (“0% Control”) and phosphorylated (“100% control”) forms of Ser/Thr 18 served as control reactions. Additionally, an 11-point dose-response curve of Staurosporine (1 uM top) was run to serve as a positive compound control.
After incubation, Development Reagent A was diluted in Development Buffer then added to the reaction and allowed to further incubate for one hour at room temperature. The plate was read at Ex 400 Em 455 to detect the coumarin signal and Ex 400 Em 520 to measure the signal (EnVision Multilabel Plate Reader, PerkinElmer).
The Emission ratio (Em) was calculated as a ratio of the coumarin (C) emission signal (at 445 nm)/Fluorescein (F) emission signal (at 520 nm). The percent phosphorylation was then calculated using the following formula: [1−((Em ratio×F100%)−C100%)/((C0%−C100%)+(Em ratio×(F100%−F0%)))].

IL-6 = IL-6 inhibition in LPS-stimulated human PBMCs (HTRF); format: cell-based; details: PBMC; for EC50: huPBMCs, LPS 50 ng/mL, 22 hours, IL-6 HTRF; for inhibition at 10 µM: read-out: percent inhibition at 10 μM
Experimental: Fresh Normal PB MNC (Catalog # PB001, AllCells, Alameda, Calif.) were shipped overnight at 4° C. and resuspended in Roswell Park Memorial Institute (RPMI) 1640 Medium, with GlutaMAX Supplement (Catalog #61870127, ThermoFisher Scientific, Waltham, Mass.) supplemented with 1% Penicillin-Streptomycin (Catalog #15140163, ThermoFisher Scientific, Waltham, Mass.) and 1% fetal bovine serum (FBS) (Catalog #16140089, ThermoFisher Scientific, Waltham, Mass.) assay media.
Compound Screening: Fresh normal human peripheral blood mononuclear cells (huPBMCs) were resuspended in 1% FBS-RPMI assay media with 1% Penicillin-Streptomycin 1% to a cell concentration of 1×10e6 cells/mL. […] 50 ng/mL of Lipopolysaccharides from Escherichia coli 0111:B4 (Catalog # L5293-2ML, Sigma-Aldrich, St. Louis, Mo.) was added after 2 hours and cells were incubated for another 22 hours at 37° C.-5% CO2. After 22 hour incubation, a mixture of anti-IL6 XL665 and anti-IL-6 Cryptate diluted in reconstitution buffer (Catalog #62IL6PEC, Cisbio Inc., Bedford, Mass.) was added to each well. Following incubation for 3 hours at room temperature, Homogeneous Time-Resolved Fluorescence (HTRF) was measured using the Envision (Perkin Elmer, Shelton, Conn.) at 665 nm and […]. The ratio of fluorescence at 665 nm to 620 nm was used as a readout for IL-6 quantification. All samples were processed in duplicate. Readings were normalized to DMSO treated cells and normalized activities were utilized for EC50 calculations. EC50 was determined using software generated by Dotmatics Limited (Windhill Bishops Stortford Herts, UK) using the Levenberg-Marquardt 4 parameter fitting procedure with finite different gradients.

[3] = test system: primary human mesenchymal stem cells (hMSCs); assay: Chondrogenesis induction in hMSCs (Rhodamine B staining intensity, EC50); format: cell-based; details: 6 days, Rhodamine B staining intensity of nodules
Text: Representative compounds were screened using primary human mesenchymal stem cells (hMSCs) to determine their ability to induce chondrogenesis (process by which cartilage is developed).
Primary human mesenchymal stem cells (hMSCs) were purchased from Lonza (Walkersville, Md.) and expanded in Mesenchymal Stem Cell Growth Media (Lonza). Cells between passage 2 and 4 were used for the experiments.
To image chondrogenic nodules, the cells were fixed using 4% formaldehyde (Electron Microscopy Sciences), and stained with 2 μg/mL Rhodamine B (Sigma-Aldrich) and 20 μM Nile Red (Sigma-Aldrich) [Johnson K., et. al, A Stem Cell-Based Approach to Cartilage Repair, Science, (2012), 336(6082). […] Rhodamine B staining intensity of nodules in each well was normalized to the average of 3 DMSO treated wells on the same plate using Excel (Microsoft Inc.). The normalized averages (fold change over DMSO) of 3 replicate wells for each compound concentration were calculated. EC50 values were calculated using non-linear regression curve fitting in Prism 8 (Graphpad Inc.). Due to solubility limitations of some of the compounds, curve fitting was incomplete, and the highest observed activity was extrapolated to the insoluble doses for accurate EC50 determinations.
EC50 values are reported. Further, using TGF-β3 as a positive control, the concentration of representative compounds required to induce equivalent levels of chondrogenesis is reported. In addition, the maximum activity of each compound and the respective dose that each compound reached maximum chondrogenesis activity is reported.

EC50 [1] [nM]	IC50 [2] [µM]	EC50 (IL-6) [nM]	EC50 [3] [nM]	SMILES	inhibition at 10 µM [1] [%]	inhibition at 10 µM (IL-6) [%]
> 10000	0.009	> 10000	69	O=C1CCc2cccc(c2)-c2cncc(c2)NC(=O)c2n[nH]c3ccc(cc23)-c2cncc(c2)CN1 [Compound 97, 2^1H-4,10-diaza-2(5,3)-indazola-1,5(3,5)-dipyridina-6(1,3)-benzenacycloundecaphane-3,9-dione]	22.2	25.7
52	0.01	> 10000	28	O=C1CCc2cccc(c2)-c2cncc3[nH]c(nc23)-c2n[nH]c3ccc(cc23)-c2cncc(c2)N1 [Compound 3, (Z)-2^3H,3^1H-5-Aza-2(7,2)-imidazo[4,5-c]pyridina-3 (3,5)-indazola-4(3,5)-pyridina-1(1,3)-benzenacyclooctaphan-6-one]		43.7
124	0.709	> 10000	213	O=C1CCc2cccc(c2)-c2cccc3[nH]c(nc23)-c2n[nH]c3ncc(cc23)-c2cncc(c2)N1 [Compound 5, (Z)-2^1H,3^1H-8-Aza-2(5,3)-pyrazolo[3,4-b]pyridina-3(2,4)-benzo[d]imidazola-1(3,5)-pyridina-4(1,3)-benzenacyclooctaphan-7-one]		9.2
475	> 10	3010	25	c1cc2cc(c1)-c1cccc3[nH]c(nc13)-c1n[nH]c3ccc(cc13)-c1cncc(c1)OCCC2 [Compound 57]		
9	0.096	> 10000	16	O=C1CCc2cccc(c2)-c2cccc3[nH]c(nc23)-c2n[nH]c3cnc(cc23)-c2cncc(c2)N1 [Compound 6, (Z)-2^1H,3^1H-8-Aza-2(5,3)-pyrazolo[3,4-c]pyridina-3(2,4)-benzo[d]imidazola-1(3,5)-pyridina-4(1,3)-benzenacyclooctaphan-7-one]		9.5
437	> 10	> 10000	22	O=C1CCc2cccc(c2)-c2cccc3[nH]c(nc23)-c2n[nH]c3ccc(nc23)-c2cncc(c2)N1 [Compound 7, (Z)-2^1H,3^1H-8-Aza-2(5,3)-pyrazolo[4,3-b]pyridina-3 (2,4)-benzo[d]imidazola-1(3,5)-pyridina-4(1,3)-benzenacyclooctaphan-7-one]		11.6
59	0.111	585	51	Cn1ncc2c1CNCc1cccc(c1)-c1cccc3[nH]c(nc13)-c1n[nH]c3ccc-2cc13 [Compound 15, (Z)-Methyl-1^1H,2^1H,3^1H-6-aza-2(5,3),3 (2,4)-diindazola-1 (4,5)-pyrazola-4(1,3)-benzenacycloheptaphane]		
11	0.018	135	10	c1cc2cc(c1)-c1cccc3[nH]c(nc13)-c1n[nH]c3ccc(cc13)-c1cncc(c1)CNC2 [Compound 10, (Z)-2^1H,3^1H-6-Aza-2(5,3),3(2,4)-diindazola-1(3,5)-pyridina-4(1,3)-benzenacycloheptaphane]		
338	0.004	> 10000	22	CN1CCCn2cc(nn2)-c2cncc3[nH]c(nc23)-c2n[nH]c3ccc(cc23)-c2cncc(c2)C1 [Compound 45, (1^4Z,2^1Z)-6-Methyl-1 ^1H,2^3H,3^1H-6-aza-2(7,2)-imidazo[4,5-c]pyridina-3(3,5)-indazola-4(3,5)-pyridina-1(4,1)-triazolacyclononaphane]		5.9
577	0.002	414	93	CN1CCCCN(C)c2nccc3[nH]c(nc23)-c2n[nH]c3ccc(cc23)-c2cncc(c2)C1 [Compound 51, (Z)-5,10-Dimethyl-1H,2^1H-5,10-diaza-1(2,4)-imidazo[4,5-c]pyridina-2(3,5)-indazola-3(3,5)-pyridinacyclodecaphane]		
87	0.005	612	36	O=C1COc2cccc(c2)-c2cncc3[nH]c(nc23)-c2n[nH]c3ccc(cc23)-c2cncc(c2)N1 [Compound 38, (Z)-2^3H,3^1H-8-Oxa-5-aza-2(7,2)-imidazo[4,5-c]pyridina-3(3,5)-indazola-4(3,5)-pyridina-1(1,3)-benzenacyclooctaphan-6-one]		
10	0.068	161	796	CN1Cc2cncc(c2)-c2ccc3[nH]nc(c3c2)-c2nc3c(cccc3[nH]2)-c2cccc(c2)C1 [Compound 22, (Z)-6-Methyl-2^1H,3^1H-6-aza-2(5,3),3(2,4)-diindazola-1(3,5)-pyridina-4(1,3)-benzenacycloheptaphane]		
> 10000	0.448	> 10000	147	O=C1NC2CCC(CC2)NCc2cncc(c2)-c2ccc3[nH]nc(c3c2)-c2nc3c1cccc3[nH]2 [Compound 64, (6^1s,6^4s,Z)-1^1H,2^1H-5,7-diaza-1 (2,4),2(3,5)-dibenzo[d]imidazola-3(3,5)-pyridina-6(1,4)-cyclohexanacyclooctaphan-8-one]	47.4	12.7
22	0.006	3820	58	O=C1CCc2cccc(c2)-c2nccc3[nH]c(nc23)-c2n[nH]c3ccc(cc23)-c2cncc(c2)N1 [Compound 2, (Z)-2^1H,3^1H-5-Aza-2(4,2)-imidazo[4,5-c]pyridina-3 (3,5)-indazola-4(3,5)-pyridina-1(1,3)-benzenacyclooctaphan-6-one]		
